Values after ≈ are worked out from the molar mass of the structure shown. Like-named read-outs stand apart in the source and are kept apart here.
Tests used:
[1] = test system: Streptococcus X66; assay: MIC by standard agar-dilution test, Streptococcus X66; type: cell-based
Description: (§1) The minimal inhibitory concentrations (MIC's) at which A201C, A201D, and A201E inhibit selected Gram positive bacteria, as determined by standard agar-dilution tests, are summarized in Table I: […]

[2] = test system: pathogenic microorganisms, particularly Gram positive bacteria; assay: Inhibition of growth of pathogenic microorganisms (general statement); type: cell-based
[3] = test system: Streptococcus 9960; assay: MIC by standard agar-dilution test, Streptococcus 9960; type: cell-based; conditions: Streptococcus 9960, agar dilution
Description: as §1

[4] = test system: Streptococcus pyogenes C203; assay: Therapy of mouse infection, Streptococcus pyogenes C203; type: in vivo, Mice; conditions: 1 and 5 hour post infection, 7 days
Description: (§2) One hour and five hours later the mice are given a subcutaneous (S.C.) dose of the compound in 60% propylene glycol. The compound is administered at five different dosage levels (eight mice for each dosage level). The animals are observed for 7 days and the number of survivors is noted. For each organism, the ED50 value is calculated using the method of W. Wick, J. Bacteriol. 81, 233 (1961).
(§3) ^b Compound administered subcutaneously (S.C.), 1 and 5 hour post

[5] = test system: Staph. epi. Epi2; assay: MIC by standard agar-dilution test, Staph. epi. Epi2; type: cell-based
Description: as §1

[6] = test system: Staphylococcus aureus 3055; assay: Therapy of mouse infection, Staphylococcus aureus 3055; type: in vivo, Mice; conditions: 1 and 5 hour post infection, 7 days
Description: as §2, §3

[7] = test system: H. influ. R252; assay: MIC by standard agar-dilution test, H. influ. R252; type: cell-based
[8] = test system: Streptococcus C203; assay: MIC by standard agar-dilution test, Streptococcus C203; type: cell-based
Description: as §1

[9] = test system: experimental bacterial infections; assay: In vivo therapeutic activity against experimental bacterial infections (general statement); conditions: mice
Description: as §2

[10] = test system: Staph. aureus X1.1; assay: MIC by standard agar-dilution test, Staph. aureus X1.1; type: cell-based; conditions: Staphylococcus aureus; Staph. aureus X1.1, agar dilution
Description: as §1

[11] = test system: Diplococcus pneumoniae Park I; assay: Therapy of mouse infection, Diplococcus pneumoniae Park I; type: in vivo, Mice; conditions: 1 and 5 hour post infection, 7 days
Description: as §2, §3

[12] = test system: Staph. aureus X400; assay: MIC by standard agar-dilution test, Staph. aureus X400; type: cell-based; conditions: Staphylococcus aureus
Description: as §1

[13] = pKa; type: physicochemical; conditions: 66% dmf-h2o
[14] = test system: Staph. aureus V41; assay: MIC by standard agar-dilution test, Staph. aureus V41; type: cell-based; conditions: Staphylococcus aureus
Description: as §1

[15] = test system: Streptococcus Park; assay: MIC by standard agar-dilution test, Streptococcus Park; type: cell-based
Description: as §1

[16] = test system: Staph. aureus S13E; assay: MIC by standard agar-dilution test, Staph. aureus S13E; type: cell-based; conditions: Staphylococcus aureus
Description: as §1

[17] = test system: Staph. epi. Epi1; assay: MIC by standard agar-dilution test, Staph. epi. Epi1; type: cell-based
Description: as §1

[18] = test system: H. influ. HOLT; assay: MIC by standard agar-dilution test, H. influ. HOLT; type: cell-based
[19] = H. influ. R252, agar dilution, read-out: MIC

Structure (SMILES): COC(COC1OC(C)C(OC)C(OC)C1O)=C1OC(Oc2ccc(C=C(C)C(=O)NC3C(CO)OC(n4cnc5c(N(C)C)ncnc54)C3O)cc2O)C(O)C1O (stereo not drawn) [Factor C]
- MIC [1]: 64 µg/mL (≈ 78.2 µM)
- inhibition of growth of pathogenic microorganisms [2]: inhibit the growth of certain pathogenic microorganisms, particularly Gram positive bacteria
- MIC [3]: > 128 µg/mL
- Survivors/Total No. of Mice ([4]; 2.19 mg/kg S.C.): 0/8
- Survivors/Total No. of Mice ([4]; 4.375 mg/kg S.C.): 4/8
- Survivors/Total No. of Mice ([4]; 8.75 mg/kg S.C.): 6/8
- Survivors/Total No. of Mice ([4]; 17.5 mg/kg S.C.): 8/8
- Survivors/Total No. of Mice ([4]; 35 mg/kg S.C.): 8/8
- ED50 ([4]; Streptococcus pyogenes, C203, sc, 168 h, S.C., IP infection 243 LD50's): 5.3 mg/kg
- MIC [5]: 64 µg/mL (≈ 78.2 µM)
- Survivors/Total No. of Mice ([6]; 2.19 mg/kg S.C.): 0/8
- Survivors/Total No. of Mice ([6]; 4.375 mg/kg S.C.): 1/8
- Survivors/Total No. of Mice ([6]; 8.75 mg/kg S.C.): 3/8
- Survivors/Total No. of Mice ([6]; 17.5 mg/kg S.C.): 0/8
- Survivors/Total No. of Mice ([6]; 35 mg/kg S.C.): 5/8
- ED50 ([6]; Staphylococcus aureus, 3055, sc, 168 h, S.C., IP infection 260 LD50's): 26 mg/kg
- MIC [7]: 32 µg/mL (≈ 39.1 µM)
- MIC [8]: 1 µg/mL (≈ 1.22 µM)
- in vivo therapeutic activity against experimental bacterial infections ([9]; listed as A201C): has shown in vivo therapeutic activity against experimental bacterial infections
- in vivo therapeutic activity against experimental bacterial infections ([9]; listed as Formula II): has shown in vivo therapeutic activity against experimental bacterial infections in mice
- MIC [10]: 8 µg/mL (≈ 9.77 µM)
- Survivors/Total No. of Mice ([11]; 4.378 mg/kg S.C.): 0/8
- Survivors/Total No. of Mice ([11]; 8.75 mg/kg S.C.): 0/8
- Survivors/Total No. of Mice ([11]; 17.5 mg/kg S.C.): 0/8
- Survivors/Total No. of Mice ([11]; 35 mg/kg S.C.): 0/8
- Survivors/Total No. of Mice ([11]; 70 mg/kg S.C.): 0/8
- ED50 ([11]; Streptococcus pneumoniae, sc, 168 h, S.C., IP infection 260 LD50's): > 70 mg/kg
- MIC [12]: 8 µg/mL (≈ 9.77 µM)
- pKa [13]: 11.4
- MIC ([14]; V41): > 128 µg/mL
- MIC [15]: 8 µg/mL (≈ 9.77 µM)
- MIC [16]: 8 µg/mL (≈ 9.77 µM)
- MIC [17]: 128 µg/mL (≈ 156 µM)
- MIC [18]: 132 µg/mL (≈ 161 µM)

Structure (SMILES): COC(COC1OC(C)C(OC)C(OC)C1O)C1OC(Oc2ccc(C=C(C)C(=O)NC3C(CO)OC(n4cnc5c(N(C)C)ncnc54)C3O)cc2)C(O)C1O (stereo not drawn) [Factor E]
- MIC [1]: 64 µg/mL (≈ 79.5 µM)
- inhibition of growth of pathogenic microorganisms [2]: inhibit the growth of certain pathogenic microorganisms, particularly Gram positive bacteria
- MIC [3]: > 128 µg/mL
- MIC [5]: 64 µg/mL (≈ 79.5 µM)
- MIC [7, 19]: 32 µg/mL (≈ 39.8 µM)
- MIC [8]: 1 µg/mL (≈ 1.24 µM)
- MIC [10]: 16 µg/mL (≈ 19.9 µM)
- MIC [12]: 16 µg/mL (≈ 19.9 µM)
- MIC ([14]; V41): 128 µg/mL (≈ 159 µM)
- MIC [15]: 16 µg/mL (≈ 19.9 µM)
- MIC [16]: 16 µg/mL (≈ 19.9 µM)
- MIC [17]: 64 µg/mL (≈ 79.5 µM)
- MIC [18]: 32 µg/mL (≈ 39.8 µM)

Structure (SMILES): COC(COC1OC(C)C(OC)C(OC)C1O)=C1OC(Oc2ccc(C=C(C)C(=O)NC3C(CO)OC(n4cnc5c(N(C)C)ncnc54)C3O)cc2)C(O)C1O (stereo not drawn) [Factor A201A, reference compound]
- MIC [1]: 8 µg/mL (≈ 9.96 µM)
- MIC [3]: 64 µg/mL (≈ 79.7 µM)
- MIC [5]: 8 µg/mL (≈ 9.96 µM)
- MIC [7, 19]: 4 µg/mL (≈ 4.98 µM)
- MIC [8]: 0.25 µg/mL (≈ 0.311 µM)
- MIC [10]: 1 µg/mL (≈ 1.25 µM)
- MIC [12]: 1 µg/mL (≈ 1.25 µM)
- MIC ([14]; Staph. aureus V41, agar dilution, read-out: MIC): 16 µg/mL (≈ 19.9 µM)
- MIC [15]: 4 µg/mL (≈ 4.98 µM)
- MIC [16]: 1 µg/mL (≈ 1.25 µM)
- MIC [17]: 16 µg/mL (≈ 19.9 µM)
- MIC [18]: 8 µg/mL (≈ 9.96 µM)

Structure (SMILES): COC(CO)=C1OC(Oc2ccc(C=C(C)C(=O)NC3C(CO)OC(n4cnc5c(N(C)C)ncnc54)C3O)cc2)C(O)C1O (stereo not drawn) [Factor D]
- MIC [1]: > 128 µg/mL
- inhibition of growth of pathogenic microorganisms [2]: inhibit the growth of certain pathogenic microorganisms, particularly Gram positive bacteria
- MIC [3]: > 128 µg/mL
- MIC [5]: 128 µg/mL (≈ 204 µM)
- MIC [7, 19]: 64 µg/mL (≈ 102 µM)
- MIC [8]: 8 µg/mL (≈ 12.7 µM)
- MIC [10]: 32 µg/mL (≈ 50.9 µM)
- MIC [12]: 64 µg/mL (≈ 102 µM)
- MIC ([14]; V41): > 128 µg/mL
- MIC [15]: 64 µg/mL (≈ 102 µM)
- MIC [16]: 32 µg/mL (≈ 50.9 µM)
- MIC [17]: 128 µg/mL (≈ 204 µM)
- MIC [18]: 128 µg/mL (≈ 204 µM)

— US4205164A, “Antibiotic A201C, A201D and A201E” (priority 1979, dated 1980)
